How the values were obtained:
[1] = biological target: T1, protein kinase D3 (PKD3) (Homo sapiens, UniProt O94806); assay: PKD3 TR-FRET (LANCE) kinase assay; assay type: biochemical; details: full length wild-type enzyme, 20 μM ATP; read-out: Inhibitory Activity PKD3
T1 construct: This assay is performed with full length wild-type enzyme that is purchased from Invitrogen; purchased Invitrogen
T1 sequence (O94806 1-890): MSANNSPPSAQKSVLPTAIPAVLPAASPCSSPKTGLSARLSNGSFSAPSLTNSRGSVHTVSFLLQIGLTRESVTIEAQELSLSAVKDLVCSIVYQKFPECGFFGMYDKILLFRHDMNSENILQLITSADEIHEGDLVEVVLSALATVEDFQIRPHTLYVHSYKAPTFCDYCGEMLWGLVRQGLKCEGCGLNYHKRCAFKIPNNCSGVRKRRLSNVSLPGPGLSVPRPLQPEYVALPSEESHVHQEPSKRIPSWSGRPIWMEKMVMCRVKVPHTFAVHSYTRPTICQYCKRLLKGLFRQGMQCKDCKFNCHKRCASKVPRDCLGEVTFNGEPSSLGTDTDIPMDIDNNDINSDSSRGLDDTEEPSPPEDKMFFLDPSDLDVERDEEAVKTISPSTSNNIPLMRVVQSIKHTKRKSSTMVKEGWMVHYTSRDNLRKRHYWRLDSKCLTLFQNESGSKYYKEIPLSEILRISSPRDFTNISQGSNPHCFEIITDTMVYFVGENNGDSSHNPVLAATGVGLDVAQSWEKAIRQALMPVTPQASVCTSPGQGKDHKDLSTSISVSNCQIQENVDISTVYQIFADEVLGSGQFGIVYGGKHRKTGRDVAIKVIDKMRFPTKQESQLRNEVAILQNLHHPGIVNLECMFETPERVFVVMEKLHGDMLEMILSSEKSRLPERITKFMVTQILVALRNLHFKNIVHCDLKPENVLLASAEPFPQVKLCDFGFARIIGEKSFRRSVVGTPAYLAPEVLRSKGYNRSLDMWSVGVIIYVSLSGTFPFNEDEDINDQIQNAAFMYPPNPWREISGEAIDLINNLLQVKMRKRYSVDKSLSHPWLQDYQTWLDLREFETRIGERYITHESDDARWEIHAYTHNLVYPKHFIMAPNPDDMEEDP
Description: (§1) The assay to measure protein kinase D3 (PKD3) activity is a time-resolved fluorescence resonance transfer (TR-FRET) assay using PerkinElmer's LANCE™ technology. In this case, a biotinylated syntide-2 peptide is used as the substrate in this reaction. Phosphorylation of the syntide-2 substrate is detected by a specific antibody that recognizes the phosphorylated peptide. A second fluorophore, APC, is conjugated to streptavidin that binds the biotinylated syntide-2 peptide. […] Therefore, when the europium labeled secondary antibody binds on the phosphorylated peptide, it is brought into close contact with the APC and excites this fluorophore.
(§2) This assay is performed with full length wild-type enzyme that is purchased from Invitrogen. The reaction buffer consists of 35 mM Tris-HCl pH7.5, 5 mM MgCl2, 0.02% Tween-20, 20 μM ATP, 1 mM DTT and 0.2 μg/mL PKD3 enzyme. The enzyme reaction is initiated by the addition of 2 μM syntide-2 peptide substrate and the reaction carried out for 50 minutes at room temperature. The reaction is stopped by a stop/detection buffer consisting of 50 mM EDTA, 0.18 mg/mL rabbit polyclonal anti-phospho syntide-2 antibody, 0.5 nM europium labeled anti-rabbit IgG and 10 nM streptavidin conjugated APC. After a one hour incubation with the stop/detection buffer, the reaction is read on an Envision 2100 Reader using a LANCET™ Eu/APC dual protocol. […] IC50 values are calculated using an Activity Base (IDBS) software program.

[2] = biological target: T2, protein kinase D2 (PKD2) (Homo sapiens, UniProt Q9BZL6); assay: PKD2 TR-FRET (LANCE) kinase assay; assay type: biochemical; details: full length wild-type enzyme, 20 μM ATP; read-out: Inhibitory Activity PKD2
T2 construct: This assay is performed with full length wild-type enzyme purchase from Invitrogen; purchased Invitrogen
T2 sequence (Q9BZL6 1-878): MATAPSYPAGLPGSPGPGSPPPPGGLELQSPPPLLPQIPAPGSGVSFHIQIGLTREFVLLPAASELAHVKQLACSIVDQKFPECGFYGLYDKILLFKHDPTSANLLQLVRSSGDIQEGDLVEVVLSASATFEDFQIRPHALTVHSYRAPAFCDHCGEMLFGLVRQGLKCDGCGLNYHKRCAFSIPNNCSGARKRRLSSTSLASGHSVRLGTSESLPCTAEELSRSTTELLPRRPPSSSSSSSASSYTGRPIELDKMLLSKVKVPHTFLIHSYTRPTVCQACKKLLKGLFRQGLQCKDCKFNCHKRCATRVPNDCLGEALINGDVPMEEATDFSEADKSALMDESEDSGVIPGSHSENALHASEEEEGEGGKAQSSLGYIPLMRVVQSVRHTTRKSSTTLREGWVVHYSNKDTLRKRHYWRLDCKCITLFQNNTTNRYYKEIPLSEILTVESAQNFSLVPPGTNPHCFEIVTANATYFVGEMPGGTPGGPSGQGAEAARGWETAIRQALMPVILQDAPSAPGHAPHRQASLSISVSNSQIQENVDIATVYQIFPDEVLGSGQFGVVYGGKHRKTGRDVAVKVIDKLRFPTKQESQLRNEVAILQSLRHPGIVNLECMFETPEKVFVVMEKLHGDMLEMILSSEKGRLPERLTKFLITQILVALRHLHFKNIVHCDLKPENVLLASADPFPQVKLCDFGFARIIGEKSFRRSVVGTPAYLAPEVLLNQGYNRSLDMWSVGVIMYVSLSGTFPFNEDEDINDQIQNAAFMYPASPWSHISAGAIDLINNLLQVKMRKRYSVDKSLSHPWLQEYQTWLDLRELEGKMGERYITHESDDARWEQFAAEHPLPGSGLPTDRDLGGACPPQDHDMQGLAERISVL
Description: as §1, with “D2 (PKD2)” for “D3 (PKD3)”
as §2, with “purchase” for “that is purchased”, “PKD2” for “PKD3”, “LANCE™” for “LANCET™”

Row | Compound | IC50 [1] [nM] | IC50 [2] [nM]
1 | O=C(NC1CC1)C1CCN(c2nc(-c3ccnc(NC4CCOCC4)c3)cc3cnccc23)CC1 [Example 17, 1-{3-[2-(Tetrahydropyran-4-ylamino)pyridin-4-yl]-[2,6]naphthyridin-1-yl}piperidine-4-carboxylic acid cyclopropylamide] | 3 | 14
2 | CCNC(=O)N1CCN(c2nc(-c3ccnc(Nc4ccn(C)n4)c3)cc3cnccc23)CC1 [Example 18, 4-{3-[2-(1-Methyl-1H-pyrazol-3-ylamino)pyridin-4-yl]-[2,6]naphthyridin-1-yl}piperazine-1-carboxylic acid ethylamide] | 30 | 127

Continued, values first:

Row | IC50 [1] [nM] | IC50 [2] [nM] | Compound
3 | 0.4 | 2 | Cn1ccc(Nc2cc(-c3cc4cnccc4c(N4CCC(C(N)=O)CC4)n3)ccn2)n1 [Example 19, 1-{3-[2-(1-Methyl-1H-pyrazol-3-ylamino)pyridin-4-yl]-[2,6]naphthyridin-1-yl}piperidine-4-carboxylic acid amide]
4 | 9 | 59 | Cn1ccc(Nc2cc(-c3cc4cnccc4c(N4CCC5(CCNC5=O)CC4)n3)ccn2)n1 [Example 20, 8-{3-[2-(1-Methyl-1H-pyrazol-3-ylamino)pyridin-4-yl]-[2,6]naphthyridin-1-yl}-2,8-diaza-spiro[4.5]decan-1-one]
5 | 10 | 120 | COCCNc1cc(-c2cc3cnccc3c(N3CCNCC3)n2)ccn1 [Example 21, (2-Methoxyethyl)-[4-(1-piperazin-1-yl-[2,6]naphthyridin-3-yl)-pyridin-2-yl]amine]
